Read-outs that look alike come from different tables or passages of the source.
Columns and labels:
BPLER cells [1] = assay: qRT-PCR of TGS transcripts after TSA treatment; format: cell-based, human; conditions: 1 μM TSA, 24 hr
Protocol: (§1) The CMAP data predicted that TSA would suppress expression of 52 TGS transcripts by ≧1.8-fold (Table 6). We measured the change in expression of the top 11 of these transcripts in BPLER and HMLER cells treated with TSA.
(§2) qRT-PCR analysis was performed as described^41. Briefly, total RNA was extracted with TRIZOL (Invitrogen) and cDNA prepared from 600-900 ng total RNA using TH[…] kit (Invitrogen) as per the manufacturer's instructions. 2.5 ul of diluted cDNA (1:20) was used as template for qPCR using POWER SYBR-GREEN MASTER MIX (Applied Biosystems) and BIORAD C1000 THERMAL CYCLER (Biorad). Primer sequences are available upon request. Relative CT values were normalized to […]-actin and converted to a linear scale using the −ΔCT method.

HMLER cells = assay: qRT-PCR of TGS transcripts after TSA treatment; format: cell-based, human; conditions: 1 μM TSA, 24 hr
Protocol: as §1, §2

BPLER cells [2] = assay: Cell viability after drug treatment (CellTiterGlo / Trypan-Blue); format: cell-based, human; conditions: increasing doses, 24 hr
TGS transcripts = conditions: Instance ID 6709, cited from earlier work

## CC(/C=C/C(=O)NO)=C\[C@@H](C)C(=O)c1ccc(N(C)C)cc1 [TSA, Trichostatin A]
BPLER cells [1]
  expression of the top 11 predicted TGS transcripts: significantly decreased
HMLER cells
  expression of the top 11 predicted TGS transcripts: All but two of these also had significantly reduced expression
BPLER cells [2]
  sensitivity of BPLER relative to HMLER cells (viability): selectively lethal for BPLER compared to HMLER
TGS transcripts; BUB1, probe set 215509_s_at
  Amplitude: −0.84
TGS transcripts; C7orf25 /// PSMA2, probe set 221573_at
  Amplitude: −0.7
TGS transcripts; C12orf10, probe set 218220_at
  Amplitude: −0.5
TGS transcripts; C19orf29, probe set 215954_s_at
  Amplitude: −0.49
TGS transcripts; CANX, probe set 208852_s_at
  Amplitude: −0.55
TGS transcripts; CANX, probe set 208853_s_at
  Amplitude: −0.81
TGS transcripts; CCNA2, probe set 203418_at
  Amplitude: −0.83
TGS transcripts; CCNA2, probe set 213226_at
  Amplitude: −0.63
TGS transcripts; CDC5L, probe set 209055_s_at
  Amplitude: −1.19
TGS transcripts; CDK13, probe set 207318_s_at
  Amplitude: −0.87
TGS transcripts; CDK13, probe set 207319_s_at
  Amplitude: −0.79
TGS transcripts; CDK17, probe set 206474_at
  Amplitude: −0.74
TGS transcripts; CDK17, probe set 221918_at
  Amplitude: −0.66
TGS transcripts; DDX19A /// DDX19B, probe set 202576_s_at
  Amplitude: −0.73
TGS transcripts; DHX8, probe set 203334_at
  Amplitude: −0.45
TGS transcripts; DNAJC11, probe set 215792_s_at
  Amplitude: −0.47
TGS transcripts; DYSF, probe set 218660_at
  Amplitude: −0.43
TGS transcripts; FYCO1, probe set 218204_s_at
  Amplitude: −0.5
TGS transcripts; GAPDH, probe set AFFX-HUMGAPDH/M33197_5_at
  Amplitude: −1.17
TGS transcripts; GAPDH, probe set AFFX-HUMGAPDH/M33197_M_at
  Amplitude: −0.62
TGS transcripts; HIPK3, probe set 210148_at
  Amplitude: −0.46
TGS transcripts; LSM2, probe set 209449_at
  Amplitude: −0.44
TGS transcripts; MCL1, probe set 200796_s_at
  Amplitude: −1.46
TGS transcripts; MFSD5, probe set 212861_at
  Amplitude: −0.77
TGS transcripts; MGAT2, probe set 203101_s_at
  Amplitude: −0.67
TGS transcripts; MTA2, probe set 203444_s_at
  Amplitude: −0.74
TGS transcripts; NAA38, probe set 219119_at
  Amplitude: −0.47
TGS transcripts; NDC80, probe set 204162_at
  Amplitude: −1.07
TGS transcripts; NME3, probe set 204862_s_at
  Amplitude: −0.6
TGS transcripts; NUP205, probe set 212247_at
  Amplitude: −0.65
TGS transcripts; PDCD4, probe set 202731_at
  Amplitude: −1.07
TGS transcripts; PFKL, probe set 201102_s_at
  Amplitude: −0.67
TGS transcripts; POLR2F, probe set 209511_at
  Amplitude: −0.43
TGS transcripts; PRC1, probe set 218009_s_at
  Amplitude: −0.67
TGS transcripts; PSMA1, probe set 201676_x_at
  Amplitude: −0.4
TGS transcripts; PSMA1, probe set 210759_s_at
  Amplitude: −0.74
TGS transcripts; PSMA1, probe set 211746_x_at
  Amplitude: −0.45
TGS transcripts; PSMA2, probe set 201317_s_at
  Amplitude: −0.41
TGS transcripts; PSMA3, probe set 201532_at
  Amplitude: −0.63
TGS transcripts; PSMB4, probe set 202243_s_at
  Amplitude: −0.43
TGS transcripts; PSMC1, probe set 204219_s_at
  Amplitude: −0.53
TGS transcripts; PSMC3, probe set 201267_s_at
  Amplitude: −1.66
TGS transcripts; PSMD7, probe set 201705_at
  Amplitude: −1.01
TGS transcripts; RAN, probe set 200750_s_at
  Amplitude: −0.48
TGS transcripts; RBM22, probe set 218134_s_at
  Amplitude: −0.75
TGS transcripts; RBMX, probe set 213762_x_at
  Amplitude: −0.58
TGS transcripts; SCD, probe set 211162_x_at
  Amplitude: −0.92
TGS transcripts; SCD, probe set 211708_s_at
  Amplitude: −0.83
TGS transcripts; SH3GL3, probe set 211565_at
  Amplitude: −0.64
TGS transcripts; SNW1, probe set 215424_s_at
  Amplitude: −1.16
TGS transcripts; TMED3, probe set 208837_at
  Amplitude: −0.42
TGS transcripts; TMEM14B, probe set 221452_s_at
  Amplitude: −0.48
TGS transcripts; TNPO1, probe set 207657_x_at
  Amplitude: −0.42
TGS transcripts; TNPO1, probe set 209226_s_at
  Amplitude: −0.68
TGS transcripts; USP39, probe set 217829_s_at
  Amplitude: −0.56
TGS transcripts; probe set 200749_at (gene symbol —)
  Amplitude: −0.5
BPE cells; at the indicated dose
  BPE viability: no effect on BPE viability
BPE cells; in vitro
  combination with bortezomib: cytotoxicity in untransformed BPE cells: not cytotoxic

From US9689040B2, “Selective inhibitors of tumor-initiating cells” (Children's Medical Center Corporation, priority 2011, dated 2017)
